Test results as given in PubChem BioAssay AID1963441 (Molecular Pharmacology Branch, DTP, NCI, 2024).
Where “and” joins values, the source holds several entries; their conditions need not be identical. Equal values may be shown once.

System: NCI-H1876 complex spheroid growth, % test/control
Test: Anticancer human tumor NCI-H1876 cell line growth inhibition [Asc];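 note: compound exposure lasted 7 days starting three days after seeding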;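 for viability, T/C: 100% = DMSO vehicle control wells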
Conditions: for viability, T/C: stronger effect = lower value
Experimental: Multicellular complex tumor spheroid response to apoptosis pathway targeting inhibitors Alrizomadlin, Pelcitoclax, and Dasminapant in combination with a variety of drugs and investigational agents in selected tumor cell lines
The MDM2 inhibitor alrizomadlin, the Bcl-2/Bcl-xL inhibitor pelcitoclax, and the IAPs inhibitor dasminapant were evaluated both individually and in combination with standard of care and investigational anticancer small molecules within a complex spheroid model of solid tumors. . Complex spheroids include a stromal component modeled by human endothelial cells (HUVEC) and fibroblasts modeled by human mesenchymal stem cells (MSCs). The concentration ranges selected for each drug and investigational agent were based upon clinically achievable concentrations if the clinical Cmax of the agent was known.
Compounds. The drugs and investigational agents: alrizomadlin (APG-115; NSC831270), pelcitoclax (APG-1252; NSC835773), dasminapant (APG-1387;NSC834197), TAK-243 (NSC785004), copanlisib (NSC809693), olaparib (NSC753686), talazoparib (NSC767125), cobimetinib (NSC 768068), eltanexor (KPT-8602, NSC 794443), abemaciclib (NSC 768073), sotorasib (NSC818433), adagrasib (NSC 831453), MRTX-1133 (NSC 836407), Iadademestat (ORY1001, NSC 806812), and RMC-4630 (NSC839698), were obtained from the NCI Developmental Therapeutics Program Chemical Repository. The FDA-approved anticancer drug set is available from the Developmental Therapeutics Program at https://dtp.cancer.gov/organization/dscb/obtaining/available plates.htm. […] The stock solutions were prepared in dimethyl sulfoxide (DMSO, Sigma-Aldrich, St. Louis, MO, cat. D2650) at 800-fold the tested concentration and stored at -70 degrees C prior to their use. All drugs and investigational agents were tested over a range starting from a high concentration at or near the clinical Cmax and decreasing in half-log increments. If the clinical Cmax for an agent had not been determined, the highest concentration tested was 10 microM.
The patient-derived cancer (PDC) cell lines include five colon adenocarcinomas: 186277-243-T-J2-PDC, 616215-338-R-J1-PDC, 439559-082-T-J2-PDC, 463943-066-T-J2-PDC, and 519858-162-T-J1-PDC; three pancreatic carcinomas: 323965-272-R-J2-PDC, 521955-158-R6-J3-PDC, and 521955-158-R2-J5-PDC; two uterine sarcomas: 327498-152-R-J2-PDC and 993429-296-R-J1-PDC; two rhabdomyosarcomas: 755483-174-R-J1-PDC and 772245-204-R-J1-PDC; two soft tissue sarcomas: 126254-015-R-J1-PDC and 494315-158-R-J1-PDC; two malignant fibrous histiocytomas: 317291-083-R-J1-PDC and 596521-263-R-J1-PDC; two breast carcinomas: 171881-019-R-J1-PDC and 885512-296-R-J2-PDC; and one ovarian carcinoma: 6556581-035-R-J-PDC were obtained from the NCI PDMR, (https://pdmr.cancer.gov). The established cell lines HSSY-2 synovial sarcoma (RRID:CVCL 8719), SYO-1 synovial sarcoma (RRID:CVCL_7146), MPNST malignant peripheral neural sheath tumor were obtained from the Sloan Kettering Institute. The following established cell lines were purchased from the American Type Culture Collection (ATCC, Manassas, VA), Sor the received from the NCI repository:, PANC-1 pancreatic carcinoma (CRL-1469, RRID:CVCL_0480), OVCAR-5 ovarian carcinoma (RRID:CVCL_1628), OVCAR-8 ovarian carcinoma (RRID:CVCL_1629), , MCF-7 breast carcinoma (CRL-12584, RRID:CVCL_0031), MDA-MB-231 breast carcinoma (CRL-12532, RRID:CVCL_0062), NCI-H1876 small cell lung carcinoma (CRL-5902, RRID:CVCL_1503), NCI-H510A small cell lung carcinoma (HTB-184, RRID:CVCL_1565), NCI-H1417 (CRL-5869, RRID:CVCL_1469), and NCI-H196 small cell lung carcinoma (CRL-5823, RRID:CVCL_1509). Dr. Peter Houghton (Greehey Children's Cancer Research Institute, University of Texas Health Science Center, San Antonio, TX) provided Rh-18 rhabdomyosarcoma (RRID:CVCL_1659). Pooled donor human umbilical vein endothelial cells (HUVEC, Lonza, cat. CC-2519) and human mesenchymal stem cells (hMSC, Lonza, cat. PT-2501) were purchased from Lonza (Walkersville, MD).
Cell Culture. […]

[1] = compound alone, run of 11/07/2022

Row | Compound | viability, T/C (compound 0.0316 µM) | viability, T/C (compound 0.1 µM) | viability, T/C (compound 0.316 µM) | viability, T/C (compound 1 µM) | viability, T/C (compound 3.16 µM) | IC50 (curve of compound) | viability, T/C (compound 0.00316 µM) | viability, T/C (compound 0.01 µM) | further results
1 | C#Cc1c(F)ccc2cc(O)cc(-c3ncc4c(N5CC6CCC(C5)N6)nc(OCC56CCCN5CC(F)C6)nc4c3F)c12 (stereo not given) | 104% (2×) and 97.2% | 82.3% and 98.9% and 99.3% | 112% and 115% and 94.7% | 92.9% and 80.2% and 91% | 90.2% and 97.4% and 102% | > 10 µM | – | – | viability, T/C (compound 10 µM): 89.6% (2×) and 88.2%
2 | C=C(F)C(=O)N1CCN(c2nc(OCC3CCCN3C)nc3c2CCN(c2cccc4cccc(Cl)c24)C3)CC1CC#N (stereo not given) | 94.3% and 102% and 97.8% | 97.6% and 92.2% and 89.2% | 101% and 95.3% and 93% | 108% and 93% and 105% | 98% and 90.9% and 102% | 5.59 µM and 6 µM and 6.86 µM | – | – | –
3 | C=CC(=O)N1CCN(c2nc(=O)n(-c3c(C)ccnc3C(C)C)c3nc(-c4c(O)cccc4F)c(F)cc23)C(C)C1 (stereo not given) | 116% and 95.9% and 101% | 99.4% and 96% and 86.8% | 106% and 93.2% and 97.1% | 101% (2×) and 100% | 113% and 108% and 106% | > 10 µM | – | – | viability, T/C (compound 10 µM): 110% and 106% and 109%
4 | CCN1C(C(=O)NC23CCC(C(=O)O)(CC2)CC3)C(c2cccc(Cl)c2F)C2(C(=O)Nc3cc(Cl)ccc32)C12CCCCC2 (stereo not given) | – | – | – | – | – | > 3 µM | – | – | viability, T/C (compound 0.00949 µM): 109% [middle of 9 runs]; viability, T/C (compound 0.0949 µM): 103% [middle of 9 runs]; viability, T/C (compound 3 µM): 107% [middle of 9 runs]; IC50 [1]: > 3 µM
5 | CCN1CCN(Cc2ccc(Nc3ncc(F)c(-c4cc(F)c5nc(C)n(C(C)C)c5c4)n3)nc2)CC1 | 97.1% and 101% and 106% | 105% and 100% and 106% | 114% (2×) and 120% | 126% and 132% and 131% | – | > 1 µM | 101% and 103% and 104% | 94.1% and 101% and 89.8% | –
6 | CNC(C)C(=O)NC1CN(S(=O)(=O)c2cccc(S(=O)(=O)N3CCC4CCC(C(=O)NC(c5ccccc5)c5ccccc5)N4C(=O)C(NC(=O)C(C)NC)C3)c2)CCC2CCC(C(=O)NC(c3ccccc3)c3ccccc3)N2C1=O (stereo not given) | 105% [middle of 9 runs] | 103% [middle of 9 runs] | 101% [middle of 9 runs] | 93.7% [middle of 9 runs] | – | > 1 µM | – | 103% [middle of 9 runs] | IC50 (compound alone, run of 11/15/2022): > 1 µM
7 | COc1c(OCCCN2CCOCC2)ccc2c3n(c(=NC(=O)c4cnc(N)nc4)nc12)CCN3 | 85% and 84.5% and 99.3% | 79.1% and 75.3% and 72% | 64.5% and 59.5% and 60.7% | 48.8% and 45.6% and 44.9% | – | 0.724 µM and 0.679 µM and 0.992 µM | 106% and 91.5% and 100% | 89.7% and 97.9% and 107% | –
8 | Cc1c(S(C)(=O)=O)c(-c2cc(F)cc(N3CCN(c4ccc(NS(=O)(=O)c5ccc(NC(CCN6CCC(C(=O)OCCCP(=O)(O)O)CC6)CSc6ccccc6)c(S(=O)(=O)C(F)(F)F)c5)cc4)CC3)c2)c(-c2ccc(Cl)cc2)n1C(C)C (stereo not given) | 109% [middle of 7 runs] | 101% [middle of 7 runs] | 96.3% [middle of 7 runs] | 90.5% [middle of 7 runs] | 95.5% [middle of 7 runs] | – | – | – | viability, T/C (compound 10 µM): 102% [middle of 7 runs]; IC50 [1]: > 10 µM
9 | Cc1nc(N2CCC3(CC2)COC(C)C3N)c(CO)nc1Sc1ccnc(N)c1Cl (stereo not given) | – | – | – | – | – | > 3 µM | – | – | viability, T/C (compound 0.00949 µM): 102% and 105% and 103%; viability, T/C (compound 0.03 µM): 92.8% and 87.9% and 89.1%; viability, T/C (compound 0.0949 µM): 103% and 84.3% and 92.5%; viability, T/C (compound 0.3 µM): 79.5% and 84.7% and 86%; viability, T/C (compound 0.949 µM): 78.4% and 84% and 94.5%; viability, T/C (compound 3 µM): 75.5% and 87.1% and 88.2%
10 | Cn1ncnc1[C@H]1c2n[nH]c(=O)c3cc(F)cc(c23)N[C@@H]1c1ccc(F)cc1 | 98.4% and 99.3% and 105% | 86% and 101% and 97.6% | – | – | – | > 0.1 µM | 95.7% and 88.1% and 105% | 102% and 96.1% and 94.6% | viability, T/C (compound 0.000316 µM): 93.5% and 106% and 102%; viability, T/C (compound 0.001 µM): 90.9% and 86.1% and 110%
11 | NC(=O)C(=Cn1cnc(-c2cc(C(F)(F)F)cc(C(F)(F)F)c2)n1)c1cncnc1 | – | – | – | – | – | > 0.3 µM | – | – | viability, T/C (compound 0.000949 µM): 104% and 99.4% (2×); viability, T/C (compound 0.003 µM): 90.3% and 91.5% and 85.9%; viability, T/C (compound 0.00949 µM): 93.9% and 92.5% and 90.8%; viability, T/C (compound 0.03 µM): 92.4% and 98.6% and 97.9%; viability, T/C (compound 0.0949 µM): 97.5% and 80.5% and 104%; viability, T/C (compound 0.3 µM): 74.8% and 77.2% and 94.8%
12 | NC1CCC(NC2CC2c2ccccc2)CC1 (stereo not given) | 116% and 112% and 131% | 107% and 112% and 136% | – | – | – | > 0.1 µM | 118% and 112% and 134% | 116% and 106% and 120% | viability, T/C (compound 0.000316 µM): 121% and 119% (2×); viability, T/C (compound 0.001 µM): 108% and 95.7% and 118%
13 | O=C(c1cc(Cc2n[nH]c(=O)c3ccccc23)ccc1F)N1CCN(C(=O)C2CC2)CC1 | 94.3% and 103% and 108% | 84.8% and 92.7% and 94% | 105% and 102% (2×) | 115% and 118% and 99.5% | 96.9% and 121% and 98.1% | > 10 µM | – | – | viability, T/C (compound 10 µM): 75.5% and 85.2% and 68.7%
14 | O=C(c1ccc(F)c(F)c1Nc1ccc(I)cc1F)N1CC(O)([C@@H]2CCCCN2)C1 | 93.7% and 92.9% and 99% | 97.5% and 91.4% and 95% | 86.5% and 84.5% and 83.9% | 79.9% and 75.1% and 76.9% | – | > 1 µM | 101% and 103% (2×) | 86.9% and 95% and 94% | –
